Measured values published in BigSolDB 2.1.

CO/N=C(\C(=O)Sc1nc2ccccc2s1)c1csc(N)n1
Details	solubility (mole fraction)
in ethanol, 277.67 K	0.000203
in ethanol, 283.11 K	0.000248
in ethanol, 288.17 K	0.000325
in ethanol, 293.09 K	0.000399
in ethanol, 298.17 K	0.000517
in ethanol, 303.09 K	0.000688
in isobutanol, 277.67 K	0.000148
in isobutanol, 283.07 K	0.000171
in isobutanol, 287.99 K	0.000206
in isobutanol, 292.79 K	0.000268
in isobutanol, 297.77 K	0.000345
in isobutanol, 304.27 K	0.000531
in isopentanol, 277.65 K	0.000183
in isopentanol, 283.07 K	0.000215
in isopentanol, 288.37 K	0.000286
in isopentanol, 293.03 K	0.000371
in isopentanol, 298.17 K	0.000472
in isopentanol, 302.63 K	0.000622
in isopropanol, 277.91 K	0.000116
in isopropanol, 283.21 K	0.000142
in isopropanol, 288.05 K	0.000168
in isopropanol, 293.19 K	0.000211
in isopropanol, 298.13 K	0.000283
in isopropanol, 303.13 K	0.000365
in n-butanol, 278.11 K	0.000262
in n-butanol, 283.53 K	0.00032
in n-butanol, 288.37 K	0.000424
in n-butanol, 293.03 K	0.000525
in n-butanol, 297.73 K	0.000662
in n-butanol, 303.71 K	0.000962
in n-pentanol, 278.27 K	0.000283
in n-pentanol, 283.33 K	0.00034
in n-pentanol, 288.15 K	0.000433
in n-pentanol, 293.23 K	0.000564
in n-pentanol, 298.17 K	0.000744
in n-pentanol, 303.15 K	0.000992
in n-propanol, 277.85 K	0.000226
in n-propanol, 283.17 K	0.000256
in n-propanol, 288.13 K	0.000332
in n-propanol, 293.17 K	0.000414
in n-propanol, 297.97 K	0.000544
in n-propanol, 302.81 K	0.00079
